This passage reports change in vivo results from patent US4714705A, “4-nitrogen substituted isoquinolinol compounds having cardiotonic, phosphodiesterase fraction III inhibiting properties and/or renal vasodilating properties” (Ortho Pharmaceutical Corporation, priority 1986, dated 1987).

In experiment [1] the test system is adult mongrel dogs. Nature of the experiment: Renal vasodilating activity in anesthetized dogs. To be noted: Canis lupus familiaris; for change in vivo at 6.2 mg/kg: 6.2 mg/kg intravenous; for change in vivo at 1.2 mg/kg: 1.2 mg/kg intravenous; for change in vivo at 0.04 mg/kg: 0.04 mg/kg intravenous; for change in vivo at 0.14 mg/kg: 0.14 mg/kg intravenous; for change in vivo at 0.34 mg/kg: 0.34 mg/kg intravenous; for change in vivo at 0.2 mg/kg: 0.2 mg/kg intravenous. The experiment is classed as in vivo, dog (adult mongrel). On the procedure: Goldberg et al, J. Pharmacol. Exp. Ther., 163, 188 (1968), performed an investigation of the structural requirements for dopamine-like renal vasodilation of phenethylamines and apmorphine. The following procedure is a variation of the assay described in that report.
Adult mongrel dogs were anesthetized and surgically prepared for electromagnetic measurement of renal artery blood flow. A carotid artery was cannulated for measuring arterial blood pressure, and drugs were administered intravenously or intraarterially (via the renal artery). Heart rate was monitored with a cardiotachometer. Renal vascular resistance was calculated as the ratio of mean arterial blood pressure/renal artery blood flow. Dopamine was infused intravenously at […] for ten minutes (at an infusion rate of about 1 ml/min) to determine responsiveness of each dog to renal dopamine receptor stimulation. Cumulative dose-response data were obtained by infusing a compound of this invention at progressively increasing (usually three-fold) infusion rates, esch dose being infused for five minutes. The maximum percent increase from pre-drug control in renal artery blood flow (or a decrease in renal vascular resistance) was determined for each infusion dose.
RBF values are percent increase in renal blood flow. RVR values are percent increase in renal vascular resistance. MABP and HR are increases in mean arterial blood pressure and heart rate, respectively, relative to controls.

In experiment [2] the test system is adult mongrel dogs. Briefly: Acute in vivo cardiotonic activity in anesthetized dogs. Further details: species or system dog (adult mongrel). To be noted: Canis lupus familiaris, relative to controls; for change in vivo at 0.12 mg/kg: 0.12 mg/kg intravenous; for change in vivo at 0.875 mg/kg: 0.875 mg/kg intravenous; for change in vivo at 1.875 mg/kg: 1.875 mg/kg intravenous; for change in vivo at 0.125 mg/kg: 0.125 mg/kg intravenous; for change in vivo at 0.375 mg/kg: 0.375 mg/kg intravenous; for change in vivo at 0.15 mg/kg: 0.150 mg/kg intravenous. On the procedure: The acute in vivo cardiotonic activity of compounds prepared according to the present invention was determined according to a modification of the procedure described by Alousi et al., Circ. Res., 45, 666 (1979).
In particular, adult mongrel dogs were anesthetized with sodium pentobarbital and were artificially respired. Arterial pressure was monitored via a femoral artery, and the pulse pressure was used to trigger a cardiotachometer for heart rate. Left ventricular pressure was determined with a Millar catheter, and dP/dt (the change in ventricular pressure with time) was derived. Cardiac output was determined by measuring ascending aortic blood flow with an electromagnetic flow probe, and myocardial contractile force was measured with a Walton Brodie strain gauge sutured to the right ventricle. Lead II EKG was also recorded.
A standard dose (10 μ/kg/min) of dopamine was administered to assess myocardial responsiveness.
Compounds of the invention were administered by intravenous infusion or bolus oral administration, and the effects on cardiovascular parameters were determined.
Dose related effects on the test compound on blood pressure (BP), heart rate (HR), maximum change in left ventricular pressure with time (dP/dt max), % change in cardiac force (CF) and the increase in mean arterial blood pressure relative to controls (MABP) were compared to pretreatment control values, expressed as a % change and rated for activity. Statistical evaluations were made using the appropriate parametric test against controls.

Where [3] appears, read: relative to controls, read-out: HR, percent change in heart rate.
Setting [4] is: relative to controls, read-out: MABP, mean arterial blood pressure.
[5] abbreviates: relative to controls, read-out: RBF, renal blood flow.
Setting [6] is: relative to controls, read-out: RVR, renal vascular resistance.
Where [7] appears, read: read-out: CF, percent change in cardiac force.
The mark [8] stands for this setting: read-out: HR, percent change in heart rate.
Where [9] appears, read: read-out: MABP, mean arterial blood pressure.
[10] abbreviates: read-out: dP/dt, maximum change left ventricular pressure with time.

Molecules are shown by their SMILES. Read-outs that look alike come from different tables or passages of the source.

Turning to `CCOc1cc2c([N+](=O)[O-])c(O)nc(C)c2cc1OC` [BAN], the change in vivo at 6.2 mg/kg in experiment [1] (setting [3]) was -5%; in experiment [1] (setting [4]), 1%; in experiment [1] (setting [5]), 61%; in experiment [1] (setting [6]), -37%. Also, the change in vivo at 0.12 mg/kg in experiment [2] (setting [7]) was 49%; in experiment [2] (setting [8]), 4%; in experiment [2] (setting [9]), -18%; in experiment [2] (setting [10]), 12%.
Turning to `COc1cc2c([N+](=O)[O-])c(O)nc(C)c2c(OC)c1OC` [BE], the change in vivo at 1.2 mg/kg in experiment [1] (setting [3]) is 32%; in experiment [1] (setting [4]) it was -26%; in experiment [1] (setting [5]), 60%; in experiment [1] (setting [6]), -52%. The change in vivo at 0.875 mg/kg in experiment [2] (setting [7]) was 84%; in experiment [2] (setting [8]) it was 18%; in experiment [2] (setting [9]), -22%; in experiment [2] (setting [10]), 38%.
With `COc1cc2cnc(O)c(NC(C)=O)c2cc1OC` [BF], the change in vivo at 6.2 mg/kg in experiment [1] (setting [3]) was -8%; in experiment [1] (setting [4]), 14%; in experiment [1] (setting [5]) it was 30%; in experiment [1] (setting [6]), -12%. In addition, the change in vivo at 1.875 mg/kg is 23% in experiment [2] (setting [7]), 7% in experiment [2] (setting [8]), 1% in experiment [2] (setting [9]) and 38% in experiment [2] (setting [10]).
As to `CCOc1cc2c(C)nc(O)c([N+](=O)[O-])c2cc1OC` [BH], the change in vivo at 0.04 mg/kg in experiment [1] (setting [3]) is 19%; in experiment [1] (setting [4]), -10%; in experiment [1] (setting [5]) it was 25%; in experiment [1] (setting [6]), -28%. The change in vivo at 0.125 mg/kg is 134% in experiment [2] (setting [7]), 18% in experiment [2] (setting [8]), -24% in experiment [2] (setting [9]) and 74% in experiment [2] (setting [10]).
On to `CCCCOc1cc2c(C)nc(O)c([N+](=O)[O-])c2cc1OC` [BI], for which the results for the change in vivo at 0.14 mg/kg in experiment [1] (setting [4]), in experiment [1] (setting [5]) and in experiment [1] (setting [6]) were -8%, 16% and -18%, respectively. The change in vivo at 0.375 mg/kg in experiment [2] (setting [7]) is 118%; in experiment [2] (setting [8]), 30%; in experiment [2] (setting [9]) it was -35%; in experiment [2] (setting [10]), 8%.
Consider `CCOc1cc2c(C)nc(O)c(NC(C)=O)c2cc1OC` [BJ], for which the change in vivo at 6.34 mg/kg in experiment [1] (iv, read-out: HR, percent change in heart rate) was -16%; in experiment [1] (6.34 mg/kg intravenous, relative to controls, read-out: MABP, mean arterial blood pressure), -4%; in experiment [1] (6.34 mg/kg intravenous, relative to controls, read-out: RBF, renal blood flow), 18%; in experiment [1] (6.34 mg/kg intravenous, relative to controls, read-out: RVR, renal vascular resistance) it was -19%. The change in vivo at 1.875 mg/kg in experiment [2] (setting [7]) is 21%; in experiment [2] (setting [8]), -3%; in experiment [2] (setting [9]), 1%; in experiment [2] (setting [10]), 8%.
With `CCOc1cc2c(C)nc(O)c([N+](=O)[O-])c2cc1OCC` [BK], the change in vivo at 0.34 mg/kg was 3% in experiment [1] (setting [3]), -21% in experiment [1] (setting [4]), 14% in experiment [1] (setting [5]) and -30% in experiment [1] (setting [6]). Also, the change in vivo at 0.375 mg/kg in experiment [2] (setting [7]) is 62%; in experiment [2] (setting [8]), 11%; in experiment [2] (setting [9]), -2%; in experiment [2] (setting [10]), 22%.
On to `COc1cc2c(-c3ccccc3)nc(O)c([N+](=O)[O-])c2cc1OC` [BL], for which the change in vivo at 0.34 mg/kg is 29% in experiment [1] (setting [3]), 6% in experiment [1] (setting [4]), 13% in experiment [1] (setting [5]) and -5% in experiment [1] (setting [6]). For the same molecule, the change in vivo at 1.875 mg/kg was 10% in experiment [2] (setting [7]), -29% in experiment [2] (setting [8]), -15% in experiment [2] (setting [9]) and 11% in experiment [2] (setting [10]).
As to `COc1cc2c(C)nc(O)c([N+](=O)[O-])c2cc1OC` [Compound BA, 3-Hydroxy-6,7-dimethoxy-1-methyl-4-nitroisoquinoline], the change in vivo at 0.2 mg/kg was 83% in experiment [1] (setting [3]), -12% in experiment [1] (setting [4]), 14% in experiment [1] (setting [5]) and -23% in experiment [1] (setting [6]). In addition, the change in vivo at 0.15 mg/kg in experiment [2] (setting [7]) is 92%; in experiment [2] (setting [8]) it was 8%; in experiment [2] (setting [9]), -19%; in experiment [2] (setting [10]), 63%.
For the molecule `COc1cc2c(C)nc(O)c(N)c2cc1OC` [Compound BBQ, 4-Amino-3-hydroxy-6,7-dimethoxy-1-methylisoquinoline], the change in vivo at 1.2 mg/kg in experiment [1] (setting [3]) was 4%; in experiment [1] (setting [4]), 6%; in experiment [1] (setting [5]) it was 22%; in experiment [1] (setting [6]), -12%. The change in vivo at 0.875 mg/kg is 99% in experiment [2] (setting [7]), 7% in experiment [2] (setting [8]), -5% in experiment [2] (setting [9]) and 106% in experiment [2] (setting [10]).
